target: Beta-secretase 1 (Homo sapiens) (UniProt P56817); test: Inhibition of recombinant BACE1 (unknown origin) using synthetic dodecapeptide with BACE1 cleavage sequence of Swedish type as substrate at 2 mM after 30 mins
Sequence (P56817 whole entry): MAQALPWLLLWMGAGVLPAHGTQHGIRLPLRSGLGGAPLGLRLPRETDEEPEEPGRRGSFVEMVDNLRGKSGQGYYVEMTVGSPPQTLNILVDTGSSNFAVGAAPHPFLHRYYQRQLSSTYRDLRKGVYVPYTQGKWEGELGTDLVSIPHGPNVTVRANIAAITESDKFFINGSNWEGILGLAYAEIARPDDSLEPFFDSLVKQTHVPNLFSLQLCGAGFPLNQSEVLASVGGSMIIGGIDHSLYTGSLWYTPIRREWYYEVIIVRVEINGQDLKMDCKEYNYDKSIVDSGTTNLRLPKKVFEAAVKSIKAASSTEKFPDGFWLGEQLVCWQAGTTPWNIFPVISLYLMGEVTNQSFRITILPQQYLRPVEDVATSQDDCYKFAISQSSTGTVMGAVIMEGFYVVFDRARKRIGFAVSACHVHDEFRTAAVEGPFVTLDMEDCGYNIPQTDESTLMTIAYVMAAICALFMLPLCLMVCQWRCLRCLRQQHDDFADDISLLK

Row | inhibition [%] | SMILES
1 | 19 | COCOc1ccc(C(=O)Nc2ccc(CCCCC(O)c3cccc(OC)c3)cn2)cc1 (stereo unspecified)
2 | 21 | COc1cccc(CCCCc2cccc(NC(C)=O)n2)c1
3 | 20 | COc1cccc(CCCCc2ccc(NC(C)=O)nc2)c1
4 | 56 | COc1cccc(C(O)CCCCc2cccc(NC(C)=O)n2)c1 (stereo unspecified)
5 | 20 | COc1cccc(C(O)CCCCc2ccc(NC(C)=O)nc2)c1 (stereo unspecified)
6 | 18 | COc1cccc(C(O)CCc2cccnc2NC(C)=O)c1 (stereo unspecified)
